Measured values taken from patent US20150164895A1, “DETERMINING SENSITIVITY OF CELLS TO B-RAF INHIBITOR TREATMENT BY DETECTING KRAS MUTATION AND RTK EXPRESSION LEVELS” (GENENTECH, INC., priority 2009, published 2015).
Several values for one entry are separate records, joined by “and”; a condition that tells them apart may be missing. Equal entries are not always repeated.

How the values were obtained:
lung tumor xenografts = experiment: Experiment H327: growth in lung tumor xenografts after dosing with B-RAF inhibitor; assay type: in vivo, mice; settings: for Absolute body weight / Relative body weight / Survival time: individual animal; for Relative tumor volume / Absolute tumor volume: (a*b*b)/2: individual tumor
From the text: FIGS. 10-18 depict growth in lung tumor xenografts after dosing with GDC-0879.
The data are shown below, and in FIGS. 10-14 for Experiment H331 and FIGS. 15-18 for Experiment H327.

WT Raf isoforms = experiment: Biochemical enzyme assay at physiological [ATP]
From the text: FIG. 1 depicts Biochemical enzyme assay data.

[1] = test system: phospho-MEK in B-RAF V600E mutant cell lines; experiment: Phospho-MEK MSD assay, basal and EGF-stimulated; assay type: cell-based; settings: basal and EGF-stimulated (20 ng/ml EGF); compared with PLX4720
Protocol: (A) Cells were treated with […] compound in serum free media for 1 hour. For stimulation 20 ng/ml EGF was added for 5 min before cells were lysed. Lysates were transferred to an MSD plate where phospho- and total MEK levels were measured. […] Cells were dosed with indicated inhibitors, either alone or in combination in the presence of 20 ng/ml EGF in the media.

B-Raf^V600E = B-Raf^V600E (Homo sapiens, UniProt P15056, V600E); settings: physiological [ATP]
[2] = H327-2, LXFA 1041/9N4, 100 mg/kg/day po Days 0-20, study day 17, listed as G-026887
[3] = H327-2, LXFA 1041/9N4, 100 mg/kg/day po Days 0-20, study day 20, group median n 10
[4] = H327-2, LXFA 1041/9N4, 100 mg/kg/day po Days 0-20, study day 20, group median n 20
[5] = H327-2, LXFA 1041/9N4, 100 mg/kg/day po Days 0-20, study day 20, listed as G-026887
[6] = H327-5, LXFA 1041/9N4, 100 mg/kg/day po Day 0, study day 0, group median n 6
[7] = H327-5, LXFA 1041/9N4, 100 mg/kg/day po Day 0, study day 0, listed as G-026887
[8] = H327-6, LXFA 1041/9N4, 100 mg/kg/day po Day 0, study day 0, group median n 3
[9] = H327-6, LXFA 1041/9N4, 100 mg/kg/day po Day 0, study day 0, listed as G-026887

Chain of B-Raf^V600E (P15056 whole entry V600E): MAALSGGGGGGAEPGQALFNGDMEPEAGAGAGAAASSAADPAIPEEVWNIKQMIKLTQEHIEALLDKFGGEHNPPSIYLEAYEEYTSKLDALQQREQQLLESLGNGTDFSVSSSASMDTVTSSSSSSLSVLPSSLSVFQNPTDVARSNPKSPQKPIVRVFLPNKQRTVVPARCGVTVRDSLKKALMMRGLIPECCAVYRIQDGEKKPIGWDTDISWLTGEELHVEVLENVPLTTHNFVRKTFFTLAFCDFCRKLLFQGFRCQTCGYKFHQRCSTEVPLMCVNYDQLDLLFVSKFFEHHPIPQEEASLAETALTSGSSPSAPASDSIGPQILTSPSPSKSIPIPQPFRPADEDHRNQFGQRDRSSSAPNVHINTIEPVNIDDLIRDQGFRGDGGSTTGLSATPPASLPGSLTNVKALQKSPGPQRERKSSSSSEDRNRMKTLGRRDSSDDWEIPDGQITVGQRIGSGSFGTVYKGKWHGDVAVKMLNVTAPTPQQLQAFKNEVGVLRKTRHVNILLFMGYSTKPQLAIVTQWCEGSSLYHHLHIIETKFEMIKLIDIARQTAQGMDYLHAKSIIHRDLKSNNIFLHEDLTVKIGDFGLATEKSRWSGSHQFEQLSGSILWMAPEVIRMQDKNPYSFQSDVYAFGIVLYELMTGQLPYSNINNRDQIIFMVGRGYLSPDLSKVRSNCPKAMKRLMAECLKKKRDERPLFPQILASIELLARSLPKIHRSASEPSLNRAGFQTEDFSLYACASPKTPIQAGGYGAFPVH

OCCn1cc(-c2ccc3c(c2)CC/C3=N\O)c(-c2ccncc2)n1 [GDC-0879, 2-{4-[(1E)-1-(hydroxyimino)-2,3-dihydro-1H-inden-5-yl]-3-(pyridine-4-yl)-1H-pyrazol-1-yl}ethan-1-ol]
Absolute body weight (lung tumor xenografts; [2]): 24.8 g and 30.3 g and 25.1 g and 25.0 g and 24.7 g and 26.2 g and 31.9 g and 31.1 g and 26.4 g and 22.7 g
Relative body weight (lung tumor xenografts; [2]): 97.6% and 105.9% and 102.4% and 102.0% and 102.9% and 104.4% and 107.0% and 98.7% and 105.6% and 96.2%
Relative tumor volume (lung tumor xenografts; [2]): 1372.2% and 1073.6% and 869.4% and 770.2% and 1242.1% and 1093.2% and 1915.9% and 1727.1% and 932.7% and 931.4% and 937.2% and 831.6% and 856.0% and 746.4%
Absolute body weight, Median (lung tumor xenografts; [3]): 26.9 g
Relative body weight, Median (lung tumor xenografts; [3]): 108.0%
Absolute tumor volume: (a*b*b)/2, Median (lung tumor xenografts; [4]): 928.6 mm3
Relative tumor volume, Median (lung tumor xenografts; [4]): 1023.2%
Absolute body weight (lung tumor xenografts; [5]): 25.4 g and 31.4 g and 25.8 g and 26.3 g and 26.1 g and 28.3 g and 33.2 g and 32.4 g and 27.4 g and 23.1 g
Relative body weight (lung tumor xenografts; [5]): 100.0% and 109.8% and 105.3% and 107.3% and 108.8% and 112.7% and 111.4% and 102.9% and 109.6% and 97.9%
Relative tumor volume (lung tumor xenografts; [5]): 1795.5% and 1109.8% and 1056.9% and 872.2% and 1346.4% and 1155.4% and 2275.4% and 1830.4% and 1070.4% and 1264.0% and 971.2% and 860.0% and 980.4% and 989.5%
Absolute tumor volume: (a*b*b)/2 (lung tumor xenografts; H327-2, LXFA 1041/9N4 Lung, adeno, 100 mg/kg/day po Days 0-20, study day 0, listed as G-026887, 100 mg/kg/day): 47.6 mm3 and 100.9 mm3 and 90.8 mm3 (2×) and 111.6 mm3 and 68.8 mm3 and 57.6 mm3 and 62.5 mm3 and 84.7 mm3 and 50.6 mm3 and 210.8 mm3 and 117.2 mm3 and 139.4 mm3
Absolute tumor volume: (a*b*b)/2 (lung tumor xenografts; H327-2, LXFA 1041/9N4 Lung, adeno, 100 mg/kg/day po Days 0-20, study day 3, listed as G-026887, 100 mg/kg/day): 92.3 mm3 and 210.8 mm3 and 140.4 mm3 and 209.5 mm3 and 139.3 mm3 and 90.8 mm3 and 68.8 mm3 and 145.4 mm3 and 117.0 mm3 and 98.3 mm3 and 292.8 mm3 and 201.6 mm3 and 249.4 mm3
Absolute tumor volume: (a*b*b)/2 (lung tumor xenografts; H327-2, LXFA 1041/9N4 Lung, adeno, 100 mg/kg/day po Days 0-20, study day 7, listed as G-026887, 100 mg/kg/day): 215.1 mm3 and 332.8 mm3 and 272.8 mm3 and 291.2 mm3 and 258.8 mm3 and 147.9 mm3 and 212.5 mm3 and 294.4 mm3 and 197.0 mm3 and 126.0 mm3 and 470.6 mm3 and 344.4 mm3 and 392.9 mm3
Absolute tumor volume: (a*b*b)/2 (lung tumor xenografts; H327-2, LXFA 1041/9N4 Lung, adeno, 100 mg/kg/day po Days 0-20, study day 10, listed as G-026887, 100 mg/kg/day): 279.3 mm3 and 491.9 mm3 and 461.7 mm3 and 420.1 mm3 and 284.6 mm3 and 237.2 mm3 and 326.4 mm3 and 510.3 mm3 and 274.4 mm3 and 173.2 mm3 and 701.8 mm3 and 451.3 mm3 and 546.2 mm3
Absolute tumor volume: (a*b*b)/2 (lung tumor xenografts; H327-2, LXFA 1041/9N4 Lung, adeno, 100 mg/kg/day po Days 0-20, study day 14, listed as G-026887, 100 mg/kg/day): 458.8 mm3 and 819.3 mm3 and 538.6 mm3 and 575.5 mm3 and 510.9 mm3 and 401.6 mm3 and 672.9 mm3 and 1044.8 mm3 and 426.3 mm3 and 312.1 mm3 and 1321.4 mm3 and 613.8 mm3 and 1022.5 mm3
Absolute tumor volume: (a*b*b)/2 (lung tumor xenografts; H327-2, LXFA 1041/9N4 Lung, adeno, 100 mg/kg/day po Days 0-20, study day 17, listed as G-026887, 100 mg/kg/day): 653.0 mm3 and 1083.4 mm3 and 789.0 mm3 and 859.6 mm3 and 853.9 mm3 and 629.7 mm3 and 1197.5 mm3 and 1567.4 mm3 and 790.0 mm3 and 471.5 mm3 and 1975.9 mm3 and 974.7 mm3 and 1193.5 mm3
Absolute tumor volume: (a*b*b)/2 (lung tumor xenografts; H327-2, LXFA 1041/9N4 Lung, adeno, 100 mg/kg/day po Days 0-20, study day 20, listed as G-026887, 100 mg/kg/day): 854.4 mm3 and 1120.0 mm3 and 959.2 mm3 and 973.4 mm3 and 925.7 mm3 and 665.5 mm3 and 1422.1 mm3 and 1661.1 mm3 and 906.6 mm3 and 639.9 mm3 and 2047.5 mm3 and 1008.0 mm3 and 1366.9 mm3
Survival time (lung tumor xenografts; H327-5, LXFA 1041/9N4, 100 mg/kg/day po Day 0): >0 days
Absolute body weight, Median (lung tumor xenografts; [6]): 25.6 g
Absolute tumor volume: (a*b*b)/2, Median (lung tumor xenografts; [6]): 248.1 mm3
Relative body weight, Median (lung tumor xenografts; [6]): 100.0%
Relative tumor volume, Median (lung tumor xenografts; [6]): 100.0%
Relative body weight (lung tumor xenografts; H327-5, LXFA 1041/9N4, 100 mg/kg/day po Day 0, study day 0): 100.0%
Absolute body weight (lung tumor xenografts; [7]): 26.3 g and 23.5 g and 24.9 g and 31.1 g and 20.8 g and 27.4 g
Absolute tumor volume: (a*b*b)/2 (lung tumor xenografts; [7]): 256.0 mm3 and 219.0 mm3 and 423.2 mm3 and 441.1 mm3 and 166.5 mm3 and 240.1 mm3
Survival time (lung tumor xenografts; H327-6, LXFA 1041/9N4, 100 mg/kg/day po Day 0): >0 days
Absolute body weight, Median (lung tumor xenografts; [8]): 27.2 g
Absolute tumor volume: (a*b*b)/2, Median (lung tumor xenografts; [8]): 267.7 mm3
Absolute body weight (lung tumor xenografts; [9]): 27.9 g and 27.2 g and 25.2 g
Absolute tumor volume: (a*b*b)/2 (lung tumor xenografts; [9]): 409.1 mm3 and 250.5 mm3 and 267.7 mm3
potency in biochemical enzyme assay (WT Raf isoforms): maintains effective potency
knocking down phospho-MEK levels [1]: more effective in knocking down phospho-MEK levels
potency in biochemical enzyme assay (B-Raf^V600E): maintains effective potency
